Publication PMC11879140, “Engineering of Phycourobilin Synthase: PubS to a Two-Electron Reductase” (Plant and Cell Physiology, 2024)

Experiments:
Test in all cases: absorption spectrum of BV complex; anaerobic bilin reductase assay with HPLC
Type in all cases: biochemical
Conditions in all cases: ferredoxin (Synechococcus sp. PCC 7002), FNR, NADPH 100 uM; 10 uM BV, 10 uM PubS; pH 8.5, 30 °C
ΔΝ_PpPubS (PpPubS, PubS) [1] = molecular target: T1, ΔΝ_PpPubS (PpPubS, PubS) (Physcomitrium patens, UniProt I3TC50, N310R)
T1 construct: residues 1-55 (N-terminal disordered region) deleted; N-terminal His-tag, pET28a, synthetic codon-optimised gene, E. coli C41
T1 sequence (I3TC50 entry or part of it N310R): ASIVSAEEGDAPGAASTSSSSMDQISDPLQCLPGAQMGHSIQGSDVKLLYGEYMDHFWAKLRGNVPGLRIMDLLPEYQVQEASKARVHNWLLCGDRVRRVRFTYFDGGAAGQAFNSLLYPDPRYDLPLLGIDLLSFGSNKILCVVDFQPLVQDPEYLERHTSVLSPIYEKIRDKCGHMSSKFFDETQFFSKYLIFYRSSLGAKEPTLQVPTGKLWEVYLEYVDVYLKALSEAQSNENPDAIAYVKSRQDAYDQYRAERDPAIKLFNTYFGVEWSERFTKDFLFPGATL

ΔΝ_PpPubS (PpPubS, PubS) [2] = molecular target: T2, ΔΝ_PpPubS (PpPubS, PubS) (Physcomitrium patens, UniProt I3TC50, F238A/N310R)
T2 construct: residues 1-55 (N-terminal disordered region) deleted; N-terminal His-tag, pET28a, synthetic codon-optimised gene, E. coli C41
T2 sequence (I3TC50 entry or part of it F238A/N310R): as the sequence (I3TC50 entry or part of it N310R) above, with F183A counted along it

ΔΝ_PpPubS (PpPubS, PubS) [3] = molecular target: T3, ΔΝ_PpPubS (PpPubS, PubS) (Physcomitrium patens, UniProt I3TC50, E240A/N310R)
T3 construct: residues 1-55 (N-terminal disordered region) deleted; N-terminal His-tag, pET28a, synthetic codon-optimised gene, E. coli C41
T3 sequence (I3TC50 entry or part of it E240A/N310R): as the sequence (I3TC50 entry or part of it N310R) above, with E185A counted along it

C=CC1=C(C)C(=Cc2[nH]c(C=C3N=C(C=C4NC(=O)C(C)=C4C=C)C(C)=C3CCC(=O)O)c(CCC(=O)O)c2C)NC1=O [biliverdin IXα]
absorption spectrum of BV complex; anaerobic bilin reductase assay with HPLC (ΔΝ_PpPubS (PpPubS, PubS) [1]): PpPubS_N310R exhibited a decrease in BV absorbance similar to the wild-type molecule | absorption spectrum of BV complex; anaerobic bilin reductase assay with HPLC (ΔΝ_PpPubS (PpPubS, PubS) [2]): Spectroscopic observations of these variants showed a decrease in BV after the addition of NADPH | absorption spectrum of BV complex; anaerobic bilin reductase assay with HPLC (ΔΝ_PpPubS (PpPubS, PubS) [3]): Spectroscopic observations of these variants showed a decrease in BV after the addition of NADPH
